Columns and labels:
[1] = target: T1, recombinant human matrix metalloproteinase 9 (rhMMP-9) (Homo sapiens, UniProt P14780); experiment: Surface plasmon resonance (SPR) binding to immobilized rhMMP-9; details: 37°C, 5-40 µM
T1 construct: amino acid residues from 107 to 707, consisted of the catalytic domain (Phe107 to Gly223); His-tag; made in house; host or cells: Escherichia coli BL21 (DE3), vector pET21a(+)
Description: A dual-flow channel MP-SPR Navi 210A analyzer (BioNavis Ltd., Tampere-region, Finland) was used to evaluate SPR kinetic parameters on gold chips (BioNavis Ltd., Finland). A solution of both EDC/NHS ((N-(3-dimethylaminopropyl)-N′-ethylcarbodiimide hydrochloride) (0.2 M) and NHS (N-hydroxysuccinimide) (0.05 M)) was employed for the activation of […] carboxylic groups. Immobilization of the rMMP-9 enzyme on the CMD Au chip was accomplished by a standard amine coupling protocol. For blocking unreacted sites, ethanolamine–HCl (1 M, pH 8.5) reagent was used.
The SPR technique, a current method for examining the interaction between ligand and protein, was employed in this research. As presented in Figure 6, association (Ka) and dissociation (Kd) constants were evaluated through sensorgrams (RU vs. time). Five […] concentrations for each of the three natural compounds were used (5, 10, 20, 30, 40 µM).
The equilibrium constant KD, which evaluates the affinity of a ligand to a protein, was determined using the formula: =Kd/Ka . A lower value of the KD constant indicates a higher interaction affinity between the protein and ligand.

[2] = target: T1, recombinant human matrix metalloproteinase 9 (rhMMP-9); experiment: Protease activity assay of rhMMP-9 with casein as substrate; assay type: biochemical; details: for α: KI = α × Ki; for type of inhibition: Lineweaver-Burk and secondary plots, mixed type; for IC50: casein degradation assay, inhibitor 0 to 70 µM, read-out: IC50 of rhMMP-9 activity inhibition; for Ki: dissociation constant of EI complex, from secondary plot of slope against [I]; for αKi (KI): dissociation constant of ESI complex, from Dixon plot of 1/V'max against [I]; for K m: casein substrate
Procedure: To determine the hydrolyzing activity of rhMMP-9, casein was used as a substrate. A casein solution (1% w/v) was added to the extracted and purified rhMMP-9, and the final volume was adjusted to 1 mL with Tris buffer (pH 7). The expression product and substrate mix were incubated with shaking for 5 minutes at 37°C. To stop the process, 1 mL of cold trichloroacetic acid (TCA, 15%) was added to the mixture. This mixture was then kept at -20°C for 10 minutes and centrifuged twice (8000 g, 5 min, 4°C) to separate soluble peptides. The pellet was discarded, and the absorbance of the supernatant soluble peptides fraction was evaluated at 280 nm. All spectrophotometric measurements were accompanied by a blank assay in the absence of the enzyme. Enzyme activity was calculated from the tyrosine standard curve and expressed as mean ± SD in units of [µmol/min] after at least five repeats ([22]). SPSS software version 9 was used for data interpretation, and all graphs were drawn and kinetic parameters calculated using an Excel spreadsheet software program. The Quest Graph IC50 Calculator was used for the calculation of IC50 values.
A cell-free casein degradation-based assay was employed to evaluate the influence of ellagitannins on the catalytic activity of the rhMMP-9 enzyme. By adding various fixed quantities of casein as a substrate and a fixed concentration of enzyme, the enzyme activity was determined in the presence of different concentrations of ellagitannins (ranging from 0 to 70 µM). The rate of tyrosine production by the protease activity of rhMMP-9 was assessed based on a calibration curve over 1 minute, which refers to enzyme activity.
To examine the effects of inhibitors on the kinetic parameters of rhMMP-9, Michaelis-Menten saturation curves and Lineweaver-Burk plots were drawn in the presence of various concentrations of inhibitors (5 - 30 µM) and substrate range (0 - 0.3%) (Figure 4).
The first of these is a Dixon plot of 1/Vʹmax against the concentration of inhibitor [I], from which the value of -αKi as the x-intercept can be determined (Figure 5A - C). The second is the slope of the primary plot (from the Lineweaver-Burk plot) against the concentration of inhibitor [I], from which the value of -Ki as the x-intercept can be determined (Figure 5D - F).

T1 sequence (P14780 107-707): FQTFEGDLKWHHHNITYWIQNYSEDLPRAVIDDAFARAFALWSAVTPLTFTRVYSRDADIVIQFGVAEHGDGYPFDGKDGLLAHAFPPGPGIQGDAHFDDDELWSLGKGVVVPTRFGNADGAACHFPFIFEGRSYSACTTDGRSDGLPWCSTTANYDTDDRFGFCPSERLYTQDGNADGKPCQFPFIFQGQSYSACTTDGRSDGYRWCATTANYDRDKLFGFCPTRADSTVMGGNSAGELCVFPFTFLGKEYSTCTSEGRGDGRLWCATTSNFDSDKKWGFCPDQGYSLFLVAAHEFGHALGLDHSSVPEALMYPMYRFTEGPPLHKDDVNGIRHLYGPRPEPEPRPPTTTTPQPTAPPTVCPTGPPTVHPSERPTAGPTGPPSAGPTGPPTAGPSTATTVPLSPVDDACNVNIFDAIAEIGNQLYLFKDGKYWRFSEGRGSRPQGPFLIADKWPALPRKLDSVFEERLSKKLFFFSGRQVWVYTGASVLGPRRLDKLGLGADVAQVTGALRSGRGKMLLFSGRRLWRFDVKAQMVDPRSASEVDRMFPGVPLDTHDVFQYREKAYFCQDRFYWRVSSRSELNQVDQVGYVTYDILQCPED

| Kd [1] [µM] | α [2] | type of inhibition [2] | IC50 [2] [µM] | Ki [2] [µM] | αKi (KI) ([2]; in µM) | reduction of catalytic activity ([2]; high concentration (60 µM)) [%] | V max ([2]; inhibitor 15 µM) [µmol/min] | K m ([2]; inhibitor 15 µM) [%] | V max ([2]; inhibitor 30 µM) [µmol/min] | K m ([2]; inhibitor 30 µM) [%] | αKi (KI) [2] [µM] | extent of inhibition of catalytic activity at high concentrations [2] | V max ([2]; inhibitor 5 µM) [µmol/min] | K m ([2]; inhibitor 5 µM) [%] | SMILES |
| --- | --- | --- | --- | --- | --- | --- | --- | --- | --- | --- | --- | --- | --- | --- | --- |
| 113 | 1.11 | competitive-non-competitive pattern | 17.1 | 24.9 | 27.57 | 90 | 0.093 ± 0.005 | 0.03 ± 0.002 | 0.078 ± 0.004 | 0.03 ± 0.002 |  |  |  |  | O=c1oc2c(O)c(O)cc3c(=O)oc4c(O)c(O)cc1c4c23 [EA, ellagic acid] |
| 67 | 0.25 | non-competitive-uncompetitive pattern | 33.3 | 12 |  |  | 0.04 ± 0.002 | 0.1 ± 0.005 |  |  | 3.03 | entirely inhibit | 0.120 ± 0.006 | 0.085 ± 0.004 | O=c1oc2cc(O)ccc2c2ccc(O)cc12 [Uro A, urolithin A] |
| 43 | 0.13 | non-competitive-uncompetitive pattern | 13.2 | 22.5 |  |  | 0.033 ± 0.002 | 0.020 ± 0.001 |  |  | 3.02 | entirely inhibit | 0.079 ± 0.004 | 0.030 ± 0.002 | O=c1oc2cc(O)ccc2c2ccccc12 [Uro B, urolithin B] |
